Experiments:
EGFR L858R/T790M/C797S = target: T1, EGFR L858R/T790M/C797S (Homo sapiens, UniProt P00533, C797S/L858R/T790M); assay: EGFR degradation HTRF assay in BaF3-LTC cells; assay type: cell-based; settings: BaF3-LTC (L858R/T790M/C797S), maximum percentage of inhibition (degradation); read-out: BaF3-LTC Dmax (%)
T1 construct: expressed in transfected cells; host or cells: BaF3-LTC
Description: (§1) BaF3-LTC(L858R/T790M/C797S) cells and BaF3 LC(L858R/C797S) cells are treated with compounds diluted in 0.2% DMSO cell culture medium and incubate for 16 h, 37° C., 5% CO2. the final concentration of compounds in all assay is start with 10 uM, 5-fold dilution, total 8 doses were included.
(§2) After 16 h treatment, add HTRF lysis buffer to each well; seal the plate and incubate 1 hour at room temperature on a plate shaker; Once the cells are lysed, 16 μL of cell lysate are transferred to a PE 384-well HTRF detection plate; 4 μL of pre-mixed HTRF antibodies are added to each well; Cover the plate with a plate sealer, spin 1000 rpm for 1 min, Incubate overnight at room temperature; Read on BMG PheraStar with HTRF protocol (337 nm-665 nm-620 nm).
(§3) The inhibition (degradation) percentage of the compound was calculated by the following equation: Inhibition percentage of Compound=100−100×(Signal−low control)/(High control−low control), wherein signal=each test compound group
(§4) High control=Cell group with added DMSO and without compound, indicating microplate readings without EGFR degradation;
(§5) Dmax is the maximum percentage of inhibition (degradation).
(§6) The IC50 (DC50) value of a compound can be obtained by fitting the following equation
(§7) Y=Bottom+(TOP−Bottom)/(1+((IC50/X)^hillslope))
(§8) Wherein, X and Y are known values, and IC50, Hillslope, Top and Bottom are the parameters obtained by fitting with software. Y is the inhibition percentage (calculated from the equation), X is the concentration of the compound; IC50 is the concentration of the compound when the 50% inhibition is reached. The smaller the IC50 value is, the stronger the inhibitory ability of the compound is. Vice versa, the higher the IC50 value is, the weaker the inhibitory ability of the compound is; Hillslope represents the slope of the fitted curve, generally around 1*; Bottom represents the minimum value of the curve obtained by data fitting, which is generally 0%±20%; Top represents the maximum value of the curve obtained by data fitting, which is generally 100%±20%. The experimental data were fitted by calculating and analyzing with Dotmatics data analysis software.

EGFR L858R/C797S = target: T2, EGFR L858R/C797S (Homo sapiens, UniProt P00533, C797S/L858R); assay: EGFR degradation HTRF assay in BaF3 LC cells; assay type: cell-based; settings: BaF3 LC (L858R/C797S), maximum percentage of inhibition (degradation); read-out: BaF3 LC Dmax (%)
T2 construct: expressed in transfected cells; host or cells: BaF3 LC
T2 sequence (P00533 25-1210 C797S/L858R): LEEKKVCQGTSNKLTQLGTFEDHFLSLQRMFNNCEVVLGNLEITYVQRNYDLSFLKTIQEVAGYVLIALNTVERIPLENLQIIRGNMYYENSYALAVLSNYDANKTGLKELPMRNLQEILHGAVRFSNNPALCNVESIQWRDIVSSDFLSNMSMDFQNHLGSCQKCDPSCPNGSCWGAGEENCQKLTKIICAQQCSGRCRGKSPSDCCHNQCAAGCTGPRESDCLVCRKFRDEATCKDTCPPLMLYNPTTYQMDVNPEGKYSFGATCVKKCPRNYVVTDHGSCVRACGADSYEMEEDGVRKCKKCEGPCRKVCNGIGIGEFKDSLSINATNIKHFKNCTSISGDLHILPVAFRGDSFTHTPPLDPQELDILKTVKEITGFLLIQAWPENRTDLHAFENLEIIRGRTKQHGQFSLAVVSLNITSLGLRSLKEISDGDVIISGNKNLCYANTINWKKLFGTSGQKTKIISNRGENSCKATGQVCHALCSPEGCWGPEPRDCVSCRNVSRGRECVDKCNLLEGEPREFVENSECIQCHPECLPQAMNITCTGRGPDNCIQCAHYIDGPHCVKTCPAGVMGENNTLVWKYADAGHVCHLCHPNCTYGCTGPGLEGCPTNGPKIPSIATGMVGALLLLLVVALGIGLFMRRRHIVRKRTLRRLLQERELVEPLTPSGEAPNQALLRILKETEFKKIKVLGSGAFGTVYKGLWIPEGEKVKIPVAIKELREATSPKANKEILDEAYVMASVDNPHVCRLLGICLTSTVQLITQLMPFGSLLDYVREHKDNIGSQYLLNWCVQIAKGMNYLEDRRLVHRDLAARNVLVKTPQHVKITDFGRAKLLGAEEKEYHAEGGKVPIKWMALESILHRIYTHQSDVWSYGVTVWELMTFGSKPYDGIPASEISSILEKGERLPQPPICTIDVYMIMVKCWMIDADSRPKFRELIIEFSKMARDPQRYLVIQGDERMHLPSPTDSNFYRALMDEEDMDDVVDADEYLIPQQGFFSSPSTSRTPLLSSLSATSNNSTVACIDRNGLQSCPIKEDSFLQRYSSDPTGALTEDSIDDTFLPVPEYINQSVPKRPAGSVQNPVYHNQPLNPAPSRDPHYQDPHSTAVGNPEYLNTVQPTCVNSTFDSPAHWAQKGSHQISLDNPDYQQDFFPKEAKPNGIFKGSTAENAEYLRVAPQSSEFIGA
Description: as §1, §2, §3, §4, §5, §6, §7, §8

T1 sequence (P00533 25-1210 T790M/C797S/L858R): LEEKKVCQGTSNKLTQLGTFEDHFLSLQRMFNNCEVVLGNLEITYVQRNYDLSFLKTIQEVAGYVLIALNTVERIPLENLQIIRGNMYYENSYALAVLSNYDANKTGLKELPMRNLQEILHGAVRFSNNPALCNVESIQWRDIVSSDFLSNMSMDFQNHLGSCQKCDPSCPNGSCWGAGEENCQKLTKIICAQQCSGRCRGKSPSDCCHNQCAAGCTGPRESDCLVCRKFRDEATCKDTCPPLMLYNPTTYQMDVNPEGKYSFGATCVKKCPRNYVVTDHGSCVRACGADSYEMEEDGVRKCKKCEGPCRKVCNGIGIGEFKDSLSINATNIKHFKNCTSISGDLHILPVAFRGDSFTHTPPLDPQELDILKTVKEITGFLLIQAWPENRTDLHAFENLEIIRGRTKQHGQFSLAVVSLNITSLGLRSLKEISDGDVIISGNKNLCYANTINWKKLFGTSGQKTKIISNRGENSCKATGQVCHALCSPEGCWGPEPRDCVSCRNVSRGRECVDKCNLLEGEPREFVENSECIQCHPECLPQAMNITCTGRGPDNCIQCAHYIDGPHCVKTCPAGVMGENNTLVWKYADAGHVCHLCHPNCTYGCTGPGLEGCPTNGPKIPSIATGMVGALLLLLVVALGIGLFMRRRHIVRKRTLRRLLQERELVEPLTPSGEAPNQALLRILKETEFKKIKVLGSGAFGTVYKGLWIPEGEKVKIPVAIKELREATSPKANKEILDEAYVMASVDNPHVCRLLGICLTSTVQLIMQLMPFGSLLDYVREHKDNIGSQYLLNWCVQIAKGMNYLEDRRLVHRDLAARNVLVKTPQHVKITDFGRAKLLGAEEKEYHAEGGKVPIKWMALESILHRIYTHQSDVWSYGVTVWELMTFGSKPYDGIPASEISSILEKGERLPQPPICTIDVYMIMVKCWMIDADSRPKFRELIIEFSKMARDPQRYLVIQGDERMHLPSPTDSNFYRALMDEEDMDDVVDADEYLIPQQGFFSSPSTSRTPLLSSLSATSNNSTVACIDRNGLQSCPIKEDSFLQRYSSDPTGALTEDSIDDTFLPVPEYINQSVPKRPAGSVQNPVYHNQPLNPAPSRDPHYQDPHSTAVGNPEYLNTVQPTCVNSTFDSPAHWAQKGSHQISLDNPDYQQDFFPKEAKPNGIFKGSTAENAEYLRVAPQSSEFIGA

SMILES | Dmax (EGFR L858R/T790M/C797S) [%] | Dmax (EGFR L858R/C797S) [%]
CCOc1cc(N2CCC(N3CCN(CCc4cc(F)c([C@H]5CCC(=O)NC5=O)c(F)c4)CC3)CC2)c(CC)cc1Nc1ncc(Br)c(Nc2ccc3nc(CC)ncc3c2P(C)(C)=O)n1 [Example 460, (R)-3-(4-(2-(4-(1-(4-((5-bromo-4-((5-(dimethylphosphoryl)-2-ethylquinazolin-6-yl)amino)pyrimidin-2-yl)amino)-5-ethoxy-2-ethylphenyl)piperidin-4-yl)piperazin-1-yl)ethyl)-2,6-difluorophenyl)piperidine-2,6-dione] | 82.5 | 88.2
CCOc1cc(N2CCC(N3CCN(CCc4cc(F)cc5c4n(C)c(=O)n5C4CCC(=O)NC4=O)CC3)CC2)c(CC)cc1Nc1ncc(Br)c(Nc2ccc3nc(CC)ccc3c2P(C)(C)=O)n1 (stereo not drawn) [Example 462, 3-(4-(2-(4-(1-(4-((5-bromo-4-((5-(dimethylphosphoryl)-2-ethylquinolin-6-yl)amino)pyrimidin-2-yl)amino)-5-ethoxy-2-ethylphenyl)piperidin-4-yl)piperazin-1-yl)ethyl)-6-fluoro-3-methyl-2-oxo-2,3-dihydro-1H-benzo[d]imidazol-1-yl)piperidine-2,6-dione] | 84.5 | 89.9
CCOc1cc(N2CCC(N3CCN(CCc4cccc5c4oc(=O)n5C4CCC(=O)NC4=O)CC3)CC2)c(CC)cc1Nc1ncc(Br)c(Nc2ccc3nc(CC)ccc3c2P(C)(C)=O)n1 (stereo not drawn) [Example 473, 3-(7-(2-(4-(1-(4-((5-bromo-4-((5-(dimethylphosphoryl)-2-ethylquinolin-6-yl)amino)pyrimidin-2-yl)amino)-5-ethoxy-2-ethylphenyl)piperidin-4-yl)piperazin-1-yl)ethyl)-2-oxobenzo[d]oxazol-3(2H)-yl)piperidine-2,6-dione] | 94.6 | 85.5
CCOc1cc(N2CCC(N3CCN(CCc4cc(F)c([C@H]5CCC(=O)NC5=O)c(F)c4)CC3)CC2)c(CC)cc1Nc1ncc(Br)c(Nc2ccc3nc(CC)ccc3c2P(C)(C)=O)n1 [Example 483, (R)-3-(4-(2-(4-(1-(4-((5-bromo-4-((5-(dimethylphosphoryl)-2-ethylquinolin-6-yl)amino)pyrimidin-2-yl)amino)-5-ethoxy-2-ethylphenyl)piperidin-4-yl)piperazin-1-yl)ethyl)-2,6-difluorophenyl)piperidine-2,6-dione] | 86.9 | 83.2
CCc1ccc2c(P(C)(C)=O)c(Nc3nc(Nc4cc(CC)c(N5CCC(N6CCN(CCc7cc(F)c([C@H]8CCC(=O)NC8=O)c(F)c7)CC6)CC5)cc4OC)ncc3Br)ccc2n1 [Example 484, (R)-3-(4-(2-(4-(1-(4-((5-bromo-4-((5-(dimethylphosphoryl)-2-ethylquinolin-6-yl)amino)pyrimidin-2-yl)amino)-2-ethyl-5-methoxyphenyl)piperidin-4-yl)piperazin-1-yl)ethyl)-2,6-difluorophenyl)piperidine-2,6-dione] | 95.4 | 91.6
CCc1ccc2c(P(C)(C)=O)c(Nc3nc(Nc4cc(CC)c(N5CCC(N6CCN(CCc7cc(F)c(C8CCC(=O)NC8=O)c(F)c7)CC6)CC5)cc4OC)ncc3Br)ccc2n1 (stereo not drawn) [Example 485, 3-(4-(2-(4-(1-(4-((5-bromo-4-((5-(dimethylphosphoryl)-2-ethylquinolin-6-yl)amino)pyrimidin-2-yl)amino)-2-ethyl-5-methoxyphenyl)piperidin-4-yl)piperazin-1-yl)ethyl)-2,6-difluorophenyl)piperidine-2,6-dione] | 88.5 | 88.3
CCc1cc(Nc2ncc(Br)c(Nc3ccc4nc(C5CC5)ccc4c3P(C)(C)=O)n2)c(OC)cc1N1CCC(N2CCN(CCc3cc(F)c([C@H]4CCC(=O)NC4=O)c(F)c3)CC2)CC1 [Example 741, (R)-3-(4-(2-(4-(1-(4-((5-bromo-4-((2-cyclopropyl-5-(dimethylphosphoryl)quinolin-6-yl)amino)pyrimidin-2-yl)amino)-2-ethyl-5-methoxyphenyl)piperidin-4-yl)piperazin-1-yl)ethyl)-2,6-difluorophenyl)piperidine-2,6-dione] | 96.6 | –
CCOc1cc(N2CCC(N3CCN(CCc4cc(F)c(F)c5c4n(CC)c(=O)n5C4CCC(=O)NC4=O)CC3)CC2)c(CC)cc1Nc1ncc(Br)c(Nc2ccc3nc(CC)ccc3c2P(C)(C)=O)n1 (stereo not drawn) [Example 742, 3-(4-(2-(4-(1-(4-((5-bromo-4-((5-(dimethylphosphoryl)-2-ethylquinolin-6-yl)amino)pyrimidin-2-yl)amino)-5-ethoxy-2-ethylphenyl)piperidin-4-yl)piperazin-1-yl)ethyl)-3-ethyl-6,7-difluoro-2-oxo-2,3-dihydro-1H-benzo[d]imidazol-1-yl)piperidine-2,6-dione] | 78.1 | –
CCc1ccc2c(P(C)(C)=O)c(Nc3nc(Nc4cc(CC)c(N5CCC(N6CCN(CCc7cc(F)c([C@H]8CCC(=O)NC8=O)c(F)c7)CC6)CC5)cc4OC)ncc3Cl)ccc2n1 [Example 744, (R)-3-(4-(2-(4-(1-(4-((5-chloro-4-((5-(dimethylphosphoryl)-2-ethylquinolin-6-yl)amino)pyrimidin-2-yl)amino)-2-ethyl-5-methoxyphenyl)piperidin-4-yl)piperazin-1-yl)ethyl)-2,6-difluorophenyl)piperidine-2,6-dione] | 92.3 | –
CCc1ccc2c(P(C)(C)=O)c(Nc3nc(Nc4cc(CC)c(N5CCC(C6CCN(CCc7cc(F)c([C@H]8CCC(=O)NC8=O)c(F)c7)CC6)CC5)cc4OC)ncc3Br)ccc2n1 [Example 745, (R)-3-(4-(2-(1′-(4-((5-bromo-4-((5-(dimethylphosphoryl)-2-ethylquinolin-6-yl)amino)pyrimidin-2-yl)amino)-2-ethyl-5-methoxyphenyl)-[4,4′-bipiperidin]-1-yl)ethyl)-2,6-difluorophenyl)piperidine-2,6-dione] | 88.7 | –
CCOc1cc(N2CCC(N3CCN(C(=O)[C@H]4CN(c5cc(F)c([C@H]6CCC(=O)NC6=O)c(F)c5)CC4(C)C)CC3)CC2)c(CC)cc1Nc1ncc(Br)c(Nc2cc(F)c3nc(CC)ccc3c2P(C)(C)=O)n1 [Example 746, (R)-3-(4-((R)-4-(4-(1-(4-((5-bromo-4-((5-(dimethylphosphoryl)-2-ethyl-8-fluoroquinolin-6-yl)amino)pyrimidin-2-yl)amino)-5-ethoxy-2-ethylphenyl)piperidin-4-yl)piperazine-1-carbonyl)-3,3-dimethylpyrrolidin-1-yl)-2,6-difluorophenyl)piperidine-2,6-dione] | 95.5 | –
CCOc1cc(N2CCC(N3CCN(C(=O)[C@H]4CN(c5cc(F)c([C@H]6CCC(=O)NC6=O)c(F)c5)CC4(C)C)CC3)CC2)c(CC)cc1Nc1ncc(Br)c(Nc2ccc3nc(C)ccc3c2P(C)(C)=O)n1 [Example 747, (R)-3-(4-((R)-4-(4-(1-(4-((5-bromo-4-((5-(dimethylphosphoryl)-2-methylquinolin-6-yl)amino)pyrimidin-2-yl)amino)-5-ethoxy-2-ethylphenyl)piperidin-4-yl)piperazine-1-carbonyl)-3,3-dimethylpyrrolidin-1-yl)-2,6-difluorophenyl)piperidine-2,6-dione] | 96.2 | –
CCc1ncc2c(P(C)(C)=O)c(Nc3nc(Nc4cc(C)c(N5CCC(N6CCN(CCc7cc(F)c([C@H]8CCC(=O)NC8=O)c(F)c7)CC6)CC5)cc4OC)ncc3Br)ccc2n1 [Example 748, (R)-3-(4-(2-(4-(1-(4-((5-bromo-4-((5-(dimethylphosphoryl)-2-ethylquinazolin-6-yl)amino)pyrimidin-2-yl)amino)-5-methoxy-2-methylphenyl)piperidin-4-yl)piperazin-1-yl)ethyl)-2,6-difluorophenyl)piperidine-2,6-dione] | 93.6 | –
CCOc1cc(N2CCC(N3CCN(CCc4cc(F)c([C@H]5CCC(=O)NC5=O)c(F)c4)CC3)CC2)c(CC)cc1Nc1nccc(Nc2ccc3nc(CC)ncc3c2P(C)(C)=O)n1 [Example 749, (R)-3-(4-(2-(4-(1-(4-((4-((5-(dimethylphosphoryl)-2-ethylquinazolin-6-yl)amino)pyrimidin-2-yl)amino)-5-ethoxy-2-ethylphenyl)piperidin-4-yl)piperazin-1-yl)ethyl)-2,6-difluorophenyl)piperidine-2,6-dione] | 35.9 | –
CCc1cc(Nc2ncc(Br)c(Nc3ccc4nccnc4c3P(C)(C)=O)n2)c(OC)cc1N1CCC(N2CCN(CCc3cc(F)c([C@H]4CCC(=O)NC4=O)c(F)c3)CC2)CC1 [Example 751, (R)-3-(4-(2-(4-(1-(4-((5-bromo-4-((5-(dimethylphosphoryl)quinoxalin-6-yl)amino)pyrimidin-2-yl)amino)-2-ethyl-5-methoxyphenyl)piperidin-4-yl)piperazin-1-yl)ethyl)-2,6-difluorophenyl)piperidine-2,6-dione] | 94.6 | –

From patent US20230248834A1, “DEGRADATION OF (EGFR) BY CONJUGATION OF EGFR INHIBITORS WITH E3 LIGASE LIGAND AND METHODS OF USE” (BEIGENE, LTD., priority 2020, published 2023)
